According to patent US20240381872A1, “SUBSTITUTED 2,3-DIHYDRO[1,3]THIAZOLO[4,5-B]PYRIDINES, SALTS THEREOF AND THEIR USE AS HERBICIDALLY ACTIVE SUBSTANCES” (BAYER AKTIENGESELLSCHAFT, priority 2021, published 2024):

Legend:
Format in all cases: in vivo
[1] = test system: Alopecurus myosuroides (ALOMY); experiment: Herbicidal pre-emergence action, section C (Table C2); conditions: Alopecurus myosuroides, pre-emergence, 504 h; application rate 320 g/ha; visual grading after ca. 3 weeks vs untreated controls; read-out: pre-emergence activity against ALOMY in %
Source text: (§1) Seeds of mono- and dicotyledonous weed plants and crop plants were sown, in plastic or organic planting pots, in sandy loam and covered with soil. The compounds according to the invention, formulated in the form of wettable powders (WP) or as emulsifiable concentrates (EC), were applied to the surface of the covering soil as aqueous suspension or emulsion, with the addition of 0.5% of an additive, at an application rate of 600 l of water/ha (converted). Following treatment, the pots were placed in a greenhouse and kept under optimum growth conditions for the test plants. The visual grading of the damage to the test plants was carried out after ca. 3 weeks in comparison to untreated controls (herbicidal effect in percent (%): 100% effect=plants have died off, 0% effect=as control plants).

[2] = test system: Echinochloa crus-galli (ECHCG); experiment: Herbicidal pre-emergence action, section C (Table C3); conditions: Echinochloa crus-galli, pre-emergence, 504 h; application rate 320 g/ha; visual grading after ca. 3 weeks vs untreated controls; read-out: pre-emergence activity against ECHCG in %
Method in brief: (§2)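 Greenhouse pre-emergence test on sandy loam: spray of formulated compound onto covering soil at 600 l water/ha, then percent damage judged by eye after ca. 3 weeks relative to untreated pots.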

Lolium rigidum (LOLRI) = experiment: Herbicidal pre-emergence action, section C (Table C5); conditions: Lolium rigidum, pre-emergence, 504 h; application rate 320 g/ha; visual grading after ca. 3 weeks; read-out: pre-emergence activity against LOLRI in %
Source text: as §1

[3] = test system: Polygonum convolvulus (POLCO); experiment: Herbicidal pre-emergence action, section C (Table C7); conditions: Fallopia convolvulus, pre-emergence, 504 h; application rate 320 g/ha; visual grading after ca. 3 weeks; read-out: pre-emergence activity against POLCO in %
Source text: as §1

Setaria viridis (SETVI) = experiment: Herbicidal pre-emergence action, section C (Table C8); conditions: Setaria viridis, pre-emergence, 504 h; application rate 320 g/ha; visual grading after ca. 3 weeks; read-out: pre-emergence activity against SETVI in %
Method in brief: as §2

Zea mays (ZEAMX) [4] = experiment: Pre-emergence effects on crop plants, section D (Table D1); conditions: application rate 80 g/ha; visual grading after ca. 3 weeks
Method in brief: (§3)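 Formulated compound (wettable powder or emulsifiable concentrate) was applied pre-emergence to the soil surface at 320 g/ha or lower. Greenhouse-grown plants were rated visually for percent damage after ca. 3 weeks.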

[5] = test system: Triticum aestivum (TRZAS); experiment: Pre-emergence effects on crop plants, section D (Table D2); conditions: application rate 80 g/ha; visual grading after ca. 3 weeks
Method in brief: as §3

Oryza sativa (ORYZA) [6] = experiment: Pre-emergence effects on crop plants, section D (Table D3); conditions: application rate 80 g/ha; visual grading after ca. 3 weeks
Source text: Seeds of mono- and dicotyledonous weed plants and crop plants were sown, in plastic or organic planting pots, in sandy loam and covered with soil. The compounds according to the invention, formulated in the form of wettable powders (WP) or as emulsifiable concentrates (EC), were applied to the surface of the covering soil as aqueous suspension or emulsion, with the addition of 0.5% of an additive, at an application rate of 600 l of water/ha (converted).
Following treatment, the pots were placed in a greenhouse and kept under optimum growth conditions for the test plants. The visual grading of the damage to the test plants was carried out after ca. 3 weeks in comparison to untreated controls (herbicidal effect in percent (%): 100% effect=plants have died off, 0% effect=as control plants).
Tables D1 to D5 below show the effects of various compounds of the general formula (I) according to Table 1 on various crop plants and an application rate corresponding to 320 g/ha or below obtained by the experimental procedure mentioned above in Biological Examples, Section C.

Glycine max (GLXMA) [7] = experiment: Pre-emergence effects on crop plants, section D (Table D4); conditions: application rate 320 g/ha; visual grading after ca. 3 weeks
Method in brief: as §3

Brassica napus (BRSNW) [8] = experiment: Pre-emergence effects on crop plants, section D (Table D5); conditions: application rate 80 g/ha; visual grading after ca. 3 weeks
Method in brief: as §3

[9] = test system: Alopecurus myosuroides (ALOMY); experiment: Herbicidal post-emergence action, section E (Table E2); conditions: Alopecurus myosuroides, post-emergence, 504 h; application rate 320 g/ha; assessed visually after ca. 3 weeks; read-out: post-emergence activity against ALOMY in %
Source text: (§4) Seeds of mono- and dicotyledonous weed plants and crop plants were sown, in plastic or organic planting pots, in sandy loam, covered with soil and grown in a greenhouse under controlled growth conditions. 2 to 3 weeks after sowing, the test plants were sprayed in the single-leaf stage. The compounds according to the invention, formulated in form of wettable powders (WP) or as emulsifiable concentrates (EC), were sprayed onto the green plant parts as aqueous suspension or emulsion, with the addition of 0.5% of an additive, at an application rate of 600 l of water/ha (converted). The test plants were placed in the greenhouse for ca. 3 weeks under optimum growth conditions, and then the effect of the preparations was assessed visually in comparison with untreated controls (herbicidal effect in percent (%): 100% effect=plants have died off, 0% effect=as control plants).

[10] = test system: Polygonum convolvulus (POLCO); experiment: Herbicidal post-emergence action, section E (Table E7); conditions: Fallopia convolvulus, 504 h, application rate 320 g/ha, visual assessment ca. 3 weeks after spraying, read-out: post-emergence activity against POLCO in %
Source text: as §4

Veronica persica (VERPE) = experiment: Herbicidal post-emergence action, section E (Table E9); conditions: Veronica persica, 504 h, application rate 320 g/ha, visual assessment ca. 3 weeks after spraying, read-out: post-emergence activity against VERPE in %
Source text: as §4

Zea mays (ZEAMX) [11] = experiment: Post-emergence effects on crop plants, section F (Table F1); conditions: Zea mays, 504 h, application rate 320 g/ha, read-out: post-emergence activity against ZEAMX in %
Method in brief: (§5)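 After sowing in sandy loam and 2–3 weeks' greenhouse growth, single-leaf plants received foliar sprays (WP or EC, 0.5% additive, 600 l/ha water, ≤320 g/ha). Around 3 weeks on, herbicidal effect was estimated by eye, 0% meaning like controls and 100% meaning plants died.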

[12] = test system: Triticum aestivum (TRZAS); experiment: Post-emergence effects on crop plants, section F (Table F2); conditions: Triticum aestivum, 504 h, application rate 320 g/ha, read-out: post-emergence activity against TRZAS in %
Method in brief: as §5

Oryza sativa (ORYZA) [13] = experiment: Post-emergence effects on crop plants, section F (Table F3); conditions: Oryza sativa, 504 h, application rate 80 g/ha, read-out: post-emergence activity against ORYZA in %
Source text: as §4, with “plants). Tables F1 to F4 below show the effects of selected compounds of the general formula (I) according to Table 1 on various crop plants and an application rate corresponding to 320 g/ha or below obtained by the experimental procedure mentioned above.” for “plants).”

Glycine max (GLXMA) [14] = experiment: Post-emergence effects on crop plants, section F (Table F4); conditions: Glycine max, 504 h, application rate 320 g/ha, read-out: post-emergence activity against GLXMA in %
Method in brief: as §5

Brassica napus (BRSNW) [15] = experiment: Post-emergence effects on crop plants, section F (Table F5); conditions: Brassica napus, 504 h, application rate 80 g/ha, read-out: post-emergence activity against BRSNW in %
Method in brief: as §5

With Cc1cc2c(nc1-c1ccccc1F)N(C(=O)C1CC1)CS2 [Example I-018, cyclopropyl[5-(2-fluorophenyl)-6-methyl[1,3]thiazolo[4,5-b]pyridin-3(2H)-yl]methanone] the pest or weed control at 320 g/ha [1] was 100%, the pest or weed control at 320 g/ha [2] was 100% and the pest or weed control at 320 g/ha (Lolium rigidum (LOLRI)) was 100%. The pest or weed control at 320 g/ha [3] was 90%, the pest or weed control at 320 g/ha (Setaria viridis (SETVI)) was 100% and the “pre-emergence activity against ZEAMX in % (crop plant damage)” value (Zea mays (ZEAMX) [4]) was 20%. The “pre-emergence activity against TRZAS in % (crop plant damage)” value [5] was 10%, the “pre-emergence activity against ORYZA in % (crop plant damage)” value (Oryza sativa (ORYZA) [6]) was 10% and the “pre-emergence activity against GLXMA in % (crop plant damage)” value (Glycine max (GLXMA) [7]) was 10%. The “pre-emergence activity against BRSNW in % (crop plant damage)” value (Brassica napus (BRSNW) [8]) was 10%, the pest or weed control at 320 g/ha [9] was 90% and the pest or weed control at 320 g/ha [10] was 80%. The pest or weed control at 320 g/ha (Veronica persica (VERPE)) was 90%, the percent crop plant damage (phytotoxicity) on Zea mays, post-emergence at 320 g/ha (Zea mays (ZEAMX) [11]) was 20% and the percent crop plant damage (wheat, post-emergence) at 320 g/ha [12] was 10%. For the same molecule, the percent crop plant damage at 80 g/ha (Oryza sativa (ORYZA) [13]) was 0%, the percent crop plant damage at 320 g/ha (Glycine max (GLXMA) [14]) was 0% and the crop plant damage (phytotoxicity) in % at 80 g/ha (Brassica napus (BRSNW) [15]) was 10%.
